Where “and” joins values, the source holds several entries; their conditions need not be identical. Equal entries are not always repeated.
Assays:
[1] = PK in beagle dogs under RLD regimen: IM 4.6 mg/kg day 1, 3.1 mg/kg day 8, 2.3 mg/kg day 36 (Groups I, IV); format: in vivo
Method: (§1) 20 healthy male beagle dogs (average weight about 11 kg) were randomly divided into 5 groups (Groups I-V) with 4 dogs in each group. Each animal was assigned its own number (#1-#20).
(§2) Group I animals (#1-#4) and Group IV animals (#13-#16) were tested under RLD regimen. Group II animals (#5-#8) were tested under Regimen A. Group III animals (#9-#12) and Group V animals (#17-#20) were tested under Regimen B. Table 5 summarizes the respective human dosages (mg of paliperidone) and the equivalent animal dosages (converted to mg/kg) and the dosing intervals under each dosing regimen.
(§3) The animals in each group received intramuscular injections according to the dosing regimen assigned to the group. Blood samples (1 ml/collection) were collected from the forelimb vein of each beagle immediate before administration (at 0 h), and thereafter at time intervals of 6 h (day 1), 24 hr (day 2), day 3, day 5, day 8 (prior to dosing for groups receiving RLD regimen), day 9, day 11, day 13, day 15 (prior to dosing for groups receiving Regimen A), day 17, day 19, day 22, day 24, day 26, day 29 (prior to dosing for groups receiving Regimen A), day 30, day 32, day 34, day 36 (prior to dosing for groups receiving RLD and Regimen A), day 37, day 39, day 42, day 45, day 47, day 50, day 53, day 57, day 64, day 71, day 78, and day 85. The blood samples were placed in heparinized centrifuge tubes and centrifuged for 10 min (3500 rpm). The plasma was separated, collected and stored under −80° C.

[2] = PK in beagle dogs under Regimen A: IM 6.2 mg/kg day 1, 1.5 mg/kg day 15, 2.3 mg/kg day 36 (Group II); format: in vivo
Method: as §1, §2, §3

[3] = PK in beagle dogs under Regimen B: IM 6.9 mg/kg day 1, 3.1 mg/kg day 29 (Groups III, V); format: in vivo
Method: as §1, §2, §3

[4] = over a broad pH range; cited from earlier work
[5] = Regimen B, Group V vs Group IV (FIG. 10B)

CCCCCCCCCCCCCCCC(=O)OC1CCCn2c1nc(C)c(CCN1CCC(c3noc4cc(F)ccc34)CC1)c2=O (racemic) [paliperidone palmitate, (9RS)-3-[2-[4-(6-Fluoro-1,2-benzisoxazol-3-yl)piperidin-1-yl]ethyl]-2-methyl-4-oxo-6,7,8,9-tetrahydro-4H-pyrido[1,2-a]pyrimadin-9-yl hexadecanoate]
AUC(0-t) ([1]; Group I, individual dogs): 3632.18 µg·days/L and 2010.03 µg·days/L and 3477.47 µg·days/L and 4210.47 µg·days/L | AUC(0-∞) ([1]; Group I, individual dogs): 3682.95 µg·days/L and 2012.83 µg·days/L and 4010.14 µg·days/L and 4214.96 µg·days/L | AUC(0-t) ([1]; Group I, mean): 3332.54 µg·days/L | AUC(0-∞) ([1]; Group I, mean): 3480.22 µg·days/L | AUC(0-t) ([1]; Group IV, individual dogs): 2528.69 µg·days/L and 3241.40 µg·days/L and 3191.02 µg·days/L and 1190.27 µg·days/L | AUC(0-∞) ([1]; Group IV, individual dogs): 2546.38 µg·days/L and 3312.15 µg·days/L and 3194.15 µg·days/L and 1311.82 µg·days/L | AUC(0-t) ([1]; Group IV, mean): 2537.85 µg·days/L | AUC(0-∞) ([1]; Group IV, mean): 2591.12 µg·days/L | AUC(0-t) ([2]; individual dogs): 4069.12 µg·days/L and 3146.75 µg·days/L and 3336.44 µg·days/L and 2282.89 µg·days/L | AUC(0-∞) ([2]; individual dogs): 4285.47 µg·days/L and 3544.02 µg·days/L and 3446.66 µg·days/L and 2612.80 µg·days/L | AUC(0-t) ([2]; mean): 3208.80 µg·days/L | AUC(0-∞) ([2]; mean): 3472.24 µg·days/L | overall drug exposures (AUC) ([3]; RLD Regimen, Regimen A and Regimen B, Groups I-III (FIG. 10A)): comparable for all three Regimens | Cmax vs RLD Regimen ([3]; Regimen B, Group III vs Group I (FIG. 10A)): comparable to that of RLD Regimen | Cmax vs RLD Regimen [3, 5]: comparable to that of RLD Regimen | time to Cmax vs RLD Regimen [3, 5]: reached Cmax earlier | trough (day 28) vs RLD Regimen [3, 5]: comparable to the same-day concentration of RLD Regimen and higher than the trough of the RLD Regimen | solubility in aqueous media [4]: practically insoluble

From patent US12128049B2, “Dosage regimen of paliperidone palmitate extended-release injectable suspension” (Luye Innomind Pharma Shijiazhuang Co., Ltd., priority 2017, dated 2024)
